Measured values published in patent US11400063B2, “Early administration of low-dose colchicine after myocardial infarction” (INSTITUT DE CARDIOLOGIE DE MONTREAL, priority 2019, dated 2022).
Like-named read-outs stand apart in the source and are kept apart here.

Experiments:
patients with CAD = test: Meta-analysis of RCTs of colchicine for secondary cardiovascular prevention (pooled); type: in vivo, human
Method: Medline (PUBMED), EMBASE, and Cochrane central were searched to identify RCTs comparing colchicine to placebo or no colchicine for secondary cardiovascular prevention (inception to Sep. 1, 2020). To maximized sensitivity, citation chasing was performed in Google Scholar, Scopus, and Web of Science. Secondary prevention was defined as patients with clinically manifest or established CAD. Query terms included “colchicine”, “coronary artery disease”, “acute coronary syndrome”, “myocardial infarction”, “cardiovascular disease”, “atherosclerosis”, and “secondary prevention”, either separately or in combination.
RCTs that met the following criteria were included in the meta-analysis: 1) compared daily use of low-dose (0.5 mg) colchicine to placebo or no colchicine for secondary cardiovascular prevention; 2) the study reported at least one of the following outcomes: cardiovascular death, MI, stroke, cardiac arrest, or urgent coronary revascularization; 3) other than the trial medication, patients in both arms were treated in accordance to guideline directed medical therapy; 4) the minimum follow-up was at least 1 year; and 5) trials were published in a peer-reviewed scientific journal. Review articles, editorials, meta-analyses, observational studies, and published abstracts were excluded from the present meta-analysis.
Using standardized forms, data on study characteristics, patient characteristics, and outcomes were extracted on the intent-to-treat population independently by two reviewers from each eligible study. The Cochrane Collaboration risk-of-bias tool for randomized trials was used to evaluate study quality. The meta-analysis was conducted in accordance to the Preferred Reporting Items for Systematic Reviews and Meta-Analyses (PRISMA) guidelines.
The primary efficacy endpoint was a composite of cardiovascular death, MI, ischemic stroke, and urgent coronary revascularization. Secondary efficacy endpoints consisted of the components of the primary endpoint, composite of cardiovascular death, MI, and ischemic stroke, as well as deep vein thrombosis or pulmonary embolus, and atrial fibrillation (AF). To maximize consistency in pooling efficacy endpoints among trials, the primary and secondary composite efficacy and stroke endpoints in COLCOT were modified to meet the definition of primary and stroke endpoints of the LoDoCo2 trial. Therefore, adjudicated events of resuscitated cardiac arrest and non-ischemic stroke in COLCOT were excluded from the pooled primary endpoint. The component endpoint of stroke was also restricted to include only ischemic strokes. Incidence rates and hazards ratios (HRs) were calculated for the new primary composite endpoint and ischemic stroke endpoint using individual patient data from COLCOT.
Safety outcomes were limited to serious adverse events (SAEs) and included all-cause and non-cardiovascular mortality, hospitalization for gastrointestinal event, infection, and pneumonia, as well as diagnosis of cancer. Incidence of SAEs were recalculated for COLCOT using the intent-to-treat population.
The DerSimonian and Laird random-effects model was used to calculate the pooled HR and corresponding 95% confidence intervals (CI) for primary and secondary endpoints in the overall trial and in subgroup analyses of the primary endpoint. For safety outcomes, the DerSimonian and Laird random-effects model was used to compute risk ratios (RR) and corresponding 95% CIs. Heterogeneity was evaluated with the Higgins I^2 statistic. I^2 values of <25%, 25-75%, and >75% were considered to indicate low, moderate, and high degrees of heterogeneity, respectively. In subgroup analyses, the Qb statistic was calculated to determine inconsistency and variability in the treatment effect between strata. Publication and small study bias were assessed with the Egger's regression test and visually by asymmetry in funnel plots. […]

[1] = COLCOT biomarkers of inflammation; type: in vivo, human; conditions: baseline to 12 months
Source text: Additional prespecified exploratory end points included the change from baseline to 6 months in the high-sensitivity C-reactive protein level and the change from baseline to 12 months in the white-cell count. The C-reactive protein biomarker substudy was implemented after a protocol amendment and was optional for sites and for patients; 34 sites chose to participate in this substudy.
The analysis of the primary end point was repeated in the per-protocol population (i.e., patients without major protocol deviations). Secondary and exploratory end points expressed as time to event were analyzed similarly. The changes from baseline to follow-up were analyzed with the use of an analysis of covariance model with adjustment for baseline value, and estimates of treatment effect are presented with 95% confidence intervals.
High-sensitivity C-reactive protein was measured in a subgroup of only 207 patients at the time of randomization and 6 months later, and the median concentration at trial entry was 4.28 mg per liter. […] The adjusted geometric mean percent changes in the high-sensitivity C-reactive protein level at 6 months after myocardial infarction were −70.0% in the colchicine group and −66.6% in the placebo group, and the placebo-adjusted geometric mean percent change was −10.1% percentage points in the colchicine group (95% CI, −28.6 to 13.4) (Table 17).
In Table 17, the placebo-adjusted geometric mean percent change was obtained by exponentiating the adjusted mean difference between groups from the analysis of covariance model (based on log-transformed data), then subtracting 1 and multiplying by 100.
In addition, the C-reactive protein biomarker sub-study was implemented following a protocol amendment and was optional for sites and for patients; 34 sites accepted to participate in this substudy. There were 213 and 208 patients who provided blood samples at baseline and 6 months, respectively. Paired baseline and 6-month hs-CRP values were available in 207 patients. Clinically available white blood cell counts were obtained from 2598 patients at baseline and 1998 patients at 12 months, and paired baseline and 12-month values were available in 1972 patients. Statistical analysis was conducted on the patients who provided both baseline and follow-up data and as these were exploratory analyses, no missing data was imputed.

[2] = test system: patients with acute coronary syndromes (ACS); conditions: COPS, cited from earlier work
patients with stable CAD = conditions: cited from earlier work
[3] = colchicine vs placebo or no colchicine

COc1cc2c(c(OC)c1OC)-c1ccc(OC)c(=O)cc1[C@@H](NC(C)=O)CC2 [Colchicine, colchicine]
AF diagnoses and AF episodes, pooled HR (patients with CAD; [3]): 0.86 | MIs, pooled HR (patients with CAD; [3]): 0.62 | all-cause mortality, pooled RR (patients with CAD; [3]): 1.04 | ischemic strokes, pooled HR (patients with CAD; [3]): 0.38 | non-cardiovascular mortality, pooled RR (patients with CAD; [3]): 1.38 | urgent coronary revascularization, pooled HR (patients with CAD; [3]): 0.58 | primary composite endpoint (cardiovascular mortality, MI, ischemic stroke, urgent coronary revascularization), pooled HR (patients with CAD; colchicine vs placebo or no colchicine, random-effects model): 0.68 | cardiovascular mortality, difference between arms (patients with CAD; pooled RCTs): no statistically significant difference | reduction in the incidence of major cardiovascular events (patients with CAD; pooled RCTs): 32% | risk reduction for MIs (patients with CAD; pooling HRs from the RCTs): 38% | risk reduction for ischemic strokes (patients with CAD; pooling HRs from the RCTs): 62% | risk reduction for urgent coronary revascularization (patients with CAD; pooling HRs from the RCTs): 44% | Circulating lymphocytes, Adjusted GM percent change [1]: 1.80% | Primary composite outcome (cardiovascular mortality, myocardial infarction, ischemic stroke, urgent revascularization), Events N ([2]; N = 396, median follow-up 12 months): 19 N | Cardiovascular mortality, HR (95% CI) ([2]; colchicine vs placebo): 3.09 (0.32-29.71) | Ischemic stroke, HR (95% CI) ([2]; colchicine vs placebo): 0.34 (0.07-1.70) | Myocardial infarction, HR (95% CI) ([2]; colchicine vs placebo): 0.52 (0.25-1.07) | Primary composite outcome, HR (95% CI) ([2]; colchicine vs placebo): 0.47 (0.27-0.82) | Urgent coronary revascularization, HR (95% CI) ([2]; colchicine vs placebo): 0.26 (0.07-0.92) | all-cause mortality, HR ([2]; colchicine vs placebo): 8.20 | Cardiovascular mortality, Events % [2]: 0.8% | Cardiovascular mortality, Events N [2]: 3 N | Ischemic stroke, Events % [2]: 0.5% | Ischemic stroke, Events N [2]: 2 N | Myocardial infarction, Events % [2]: 3.7% | Myocardial infarction, Events N [2]: 11 N | Primary composite outcome, Events % [2]: 4.8% | Urgent coronary revascularization, Events % [2]: 0.8% | Urgent coronary revascularization, Events N [2]: 3 N | Primary composite outcome (cardiovascular mortality, myocardial infarction, ischemic stroke, urgent revascularization), Events N (patients with stable CAD; LoDoCo2, N = 2762, median follow-up 28.6 months): 187 N | Cardiovascular mortality, HR (95% CI) (patients with stable CAD; LoDoCo2, colchicine vs placebo): 0.80 (0.44-1.44) | Ischemic stroke, HR (95% CI) (patients with stable CAD; LoDoCo2, colchicine vs placebo): 0.66 (0.35-1.25) | Myocardial infarction, HR (95% CI) (patients with stable CAD; LoDoCo2, colchicine vs placebo): 0.70 (0.53-0.93) | Primary composite outcome, HR (95% CI) (patients with stable CAD; LoDoCo2, colchicine vs placebo): 0.69 (0.57-0.83) | Urgent coronary revascularization, HR (95% CI) (patients with stable CAD; LoDoCo2, colchicine vs placebo): 0.75 (0.60-0.94) | all-cause mortality, HR (patients with stable CAD; LoDoCo2, colchicine vs placebo): 1.21 | Myocardial infarction, HR (95% CI) (patients with stable CAD; LoDoCo2, colchicine vs placebo, listed as colchicine): 0.70 | Cardiovascular mortality, Events % (patients with stable CAD; LoDoCo2): 0.7% | Cardiovascular mortality, Events N (patients with stable CAD; LoDoCo2): 20 N | Ischemic stroke, Events % (patients with stable CAD; LoDoCo2): 0.6% | Ischemic stroke, Events N (patients with stable CAD; LoDoCo2): 16 N | Myocardial infarction, Events % (patients with stable CAD; LoDoCo2): 3.0% | Myocardial infarction, Events N (patients with stable CAD; LoDoCo2): 83 N | Primary composite outcome, Events % (patients with stable CAD; LoDoCo2): (6.8%) | Urgent coronary revascularization, Events % (patients with stable CAD; LoDoCo2): (4.9%) | Urgent coronary revascularization, Events N (patients with stable CAD; LoDoCo2): 135 N
